Experimental data published in patent US20260355212A1 (priority 2022, published 2026).
Read-outs that look alike come from different tables or passages of the source.

Legend:
SARS-CoV-2 Mpro = SARS-CoV-2 Mpro (Severe acute respiratory syndrome coronavirus 2, UniProt P0DTD1); experiment: SARS-CoV-2 Mpro enzymatic inhibition assay (fluorescence); format: biochemical
In short: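 Recombinant Mpro expressed in E. coli was preincubated 30 min at room temperature with 10-point, 3-fold serially diluted compound in duplicate. Fluorogenic substrate was then added and incubated 60 min at 30° C, and fluorescence read at Ex/Em 340/490 nm. IC50 came from a four-parameter fit of % inhibition.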

HCoV-229E Mpro = HCoV-229E Mpro (Human coronavirus 229E, UniProt P0C6X1); experiment: HCoV-229E Mpro enzymatic inhibition assay (fluorescence); format: biochemical
HCoV-229E Mpro, sequence (P0C6X1 2966-3267 limits assumed): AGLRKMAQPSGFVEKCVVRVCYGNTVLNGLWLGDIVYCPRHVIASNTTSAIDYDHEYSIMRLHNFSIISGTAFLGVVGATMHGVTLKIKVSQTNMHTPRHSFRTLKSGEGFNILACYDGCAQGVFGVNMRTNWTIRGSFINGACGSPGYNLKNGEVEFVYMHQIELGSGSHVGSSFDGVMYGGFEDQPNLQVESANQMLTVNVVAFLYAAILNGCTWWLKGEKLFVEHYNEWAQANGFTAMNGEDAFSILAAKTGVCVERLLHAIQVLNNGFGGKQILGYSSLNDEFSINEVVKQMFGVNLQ
Procedure: (§1) The hCoV Mpro are cloned, expressed in E. coli and purified by WuXi AppTec Co., Ltd. The substrate are synthesized by Genscript Biotech.
(§2) Compounds are 3 fold serially diluted for 10 doses and added to an assay plate (384w format) using ECHO, in duplicate wells. The test concentration of test compounds is defined by sponsor. […] For no inhibition control (ZPE, zero percent effect), DMSO is added.
(§3) 25 μL of Mpro proteins are added to the assay plates containing compounds, respectively, using Multidrop. The compounds and Mpro proteins are pre-incubated at room temperature for 30 min. Then 5 µL of Mpro substrates are added to the related assay plates, respectively. Each activity testing point has a relevant background control to normalize the fluorescence interference of compound.
(§4) After 60 min incubation at 30° C., the fluorescence signal (RFU) is detected using a microplate reader M2e (SpectraMax) at Ex/Em=340 nm/490 nm.
(§5) The inhibition activity is calculated using the formula below, IC50 values will be calculated using the Inhibition % data.
(§6) Inhibition %=[(CPD−BGCPD)−(ZPE−BGZPE)/(HPE−BGHPE)−(ZPE−BGZPE)]×[…] • CPD: Signal of test compounds wells, containing compound+enzyme+substrate. • ZPE: Average of signals of zero percent effective control wells, containing enzyme+substrate, no compound. • HPE: Average of signals of hundred percent effect control wells, containing GC376+enzyme+substrate. • BG: Compound background control wells, containing compound+substrate, no enzyme
(§7) IC50 values of compounds are calculated with the GraphPad Prism software using the nonlinear regression model of log(inhibitor) vs. response—Variable slope (four parameters).

HCoV-HKU1 Mpro = HCoV-HKU1 Mpro (Human coronavirus HKU1, UniProt P0C6X2); experiment: HCoV-HKU1 Mpro enzymatic inhibition assay (fluorescence); format: biochemical
HCoV-HKU1 Mpro, sequence (P0C6X2 3335-3637 limits assumed): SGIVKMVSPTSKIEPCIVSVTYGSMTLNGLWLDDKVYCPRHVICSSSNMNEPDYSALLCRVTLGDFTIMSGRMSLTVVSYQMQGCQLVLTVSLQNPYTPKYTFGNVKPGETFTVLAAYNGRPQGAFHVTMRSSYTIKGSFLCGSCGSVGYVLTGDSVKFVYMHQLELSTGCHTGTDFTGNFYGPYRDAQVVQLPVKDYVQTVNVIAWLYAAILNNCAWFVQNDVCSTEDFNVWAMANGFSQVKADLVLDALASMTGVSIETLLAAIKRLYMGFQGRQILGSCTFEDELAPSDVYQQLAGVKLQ
Procedure: as §1, §2, §3, §4, §5, §6, §7

MERS Mpro = MERS Mpro (Middle East respiratory syndrome-related coronavirus, UniProt K9N7C7); experiment: biochemical; set-up: species or system MERS-CoV
MERS Mpro, sequence (K9N7C7 3248-3553 limits assumed): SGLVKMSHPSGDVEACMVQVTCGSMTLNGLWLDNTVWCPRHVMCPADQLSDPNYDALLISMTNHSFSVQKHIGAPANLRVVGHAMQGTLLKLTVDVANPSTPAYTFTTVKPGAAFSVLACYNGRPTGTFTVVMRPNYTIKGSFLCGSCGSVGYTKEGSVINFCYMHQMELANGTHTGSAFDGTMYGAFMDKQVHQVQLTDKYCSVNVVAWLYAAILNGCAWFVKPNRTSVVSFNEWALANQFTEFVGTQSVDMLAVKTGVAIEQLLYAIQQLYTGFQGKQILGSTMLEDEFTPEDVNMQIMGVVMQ

HCoV-NL63 Mpro = HCoV-NL63 Mpro (Human coronavirus NL63, UniProt P0C6X5); experiment: HCoV-NL63 Mpro enzymatic inhibition assay (fluorescence); format: biochemical
HCoV-NL63 Mpro, sequence (P0C6X5 2940-3242 limits assumed): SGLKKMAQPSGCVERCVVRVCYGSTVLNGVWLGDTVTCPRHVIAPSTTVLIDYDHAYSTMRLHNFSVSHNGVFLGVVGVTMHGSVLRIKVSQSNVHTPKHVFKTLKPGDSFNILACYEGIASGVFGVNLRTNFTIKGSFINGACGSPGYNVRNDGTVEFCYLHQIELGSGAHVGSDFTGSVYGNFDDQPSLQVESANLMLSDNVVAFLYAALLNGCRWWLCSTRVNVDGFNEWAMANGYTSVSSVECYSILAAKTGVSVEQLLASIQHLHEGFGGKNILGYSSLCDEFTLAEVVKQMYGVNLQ
Procedure: as §1, §2, §3, §4, §5, §6, §7

HCoV-OC43 Mpro = HCoV-OC43 Mpro (Human coronavirus OC43, UniProt P0C6X6); experiment: HCoV-OC43 Mpro enzymatic inhibition assay (fluorescence); format: biochemical
HCoV-OC43 Mpro, sequence (P0C6X6 3247-3549 limits assumed): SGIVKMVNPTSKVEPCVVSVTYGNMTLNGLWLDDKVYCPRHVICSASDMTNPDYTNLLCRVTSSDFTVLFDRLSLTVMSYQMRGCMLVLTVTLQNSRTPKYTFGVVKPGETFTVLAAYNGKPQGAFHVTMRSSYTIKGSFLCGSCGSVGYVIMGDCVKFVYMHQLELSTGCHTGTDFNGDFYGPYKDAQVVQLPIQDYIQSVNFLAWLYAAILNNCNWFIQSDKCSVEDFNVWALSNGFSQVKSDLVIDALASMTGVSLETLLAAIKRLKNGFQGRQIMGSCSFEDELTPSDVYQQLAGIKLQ
Procedure: as §1, §2, §3, §4, §5, §6, §7

SARS-CoV-1 Mpro = SARS-CoV-1 Mpro (Severe acute respiratory syndrome coronavirus, UniProt P0C6X7); experiment: biochemical

Row | Compound | IC50 (SARS-CoV-2 Mpro; mean, 25 nM protein, 25 μM substrate, 30 min pre-incubation, 60 min at 30° C., read-out: Mpro_SARS-CoV-2 mean IC50) [nM] | IC50 (HCoV-229E Mpro) [nM] | IC50 (HCoV-HKU1 Mpro) [nM] | IC50 (MERS Mpro) [nM] | IC50 (HCoV-NL63 Mpro) [nM] | IC50 (HCoV-OC43 Mpro) [nM] | IC50 (SARS-CoV-1 Mpro) [nM] | IC50 (SARS-CoV-2 Mpro) [nM]
1 | CC1(C)[C@@H]2[C@@H](C(=O)N[C@H](C=O)C[C@@H]3CCNC3=O)N(C(=O)c3cc4c(C#N)cccc4[nH]3)C[C@@H]21 [Compound 59, (1R,2S,5S)-3-(4-Cyano-1H-indole-2-carbonyl)-6,6-dimethyl-N—((S)-1-oxo-3-((S)-2-oxopyrrolidin-3-yl)propan-2-yl)-3-azabicyclo[3.1.0]hexane-2-carboxamide] | 26 | 42.6 | 22.9 | 230 | 64.1 | 57.5 | 83.4 | –
2 | CCc1cccc2[nH]c(C(=O)N3C[C@H]4[C@@H]([C@H]3C(=O)N[C@H](C=O)C[C@@H]3CCNC3=O)C4(C)C)cc12 [Compound 14, (1R,2S,5S)-3-(4-ethyl-1H-indole-2-carbonyl)-6,6-dimethyl-N—((S)-1-oxo-3-((S)-2-oxopyrrolidin-3-yl)propan-2-yl)-3-azabicyclo[3.1.0]hexane-2-carboxamide] | – | 39.6 | 22.2 | 322 | 49.3 | 39.4 | 52 | 14.5
3 | CC1(C)[C@@H]2[C@@H](C(=O)N[C@H](C#N)C[C@@H]3CCNC3=O)N(C(=O)c3cc4c(F)ccc(Cl)c4[nH]3)C[C@@H]21 [Compound 128, (1R,2S,5S)-3-(7-Chloro-4-fluoro-1H-indole-2-carbonyl)-N—((S)-1-cyano-2-((S)-2-oxopyrrolidin-3-yl)ethyl)-6,6-dimethyl-3-azabicyclo[3.1.0]hexane-2-carboxamide] | – | 1230 | 1900 | 5580 | 3980 | 1990 | 788 | 318
4 | CC(C)c1ccc(F)c2[nH]c(C(=O)N3C[C@H]4[C@@H]([C@H]3C(=O)N[C@H](C=O)C[C@@H]3CCNC3=O)C4(C)C)cc12 [Compound 39, (1R,2S,5S)-3-(7-fluoro-4-isopropyl-1H-indole-2-carbonyl)-6,6-dimethyl-N—((S)-1-oxo-3-((S)-2-oxopyrrolidin-3-yl)propan-2-yl)-3-azabicyclo[3.1.0]hexane-2-carboxamide] | – | 26.4 | 16 | 208 | 40 | 35.1 | 30 | 21.6
5 | CC1(C)C[C@@H](C(=O)N[C@H](C=O)C[C@@H]2CCNC2=O)N(C(=O)c2cc3cccc(Cl)c3[nH]2)C1 [Compound 9, (S)-1-(7-chloro-1H-indole-2-carbonyl)-4,4-dimethyl-N—((S)-1-oxo-3—((S)-2-oxopyrrolidin-3-yl)propan-2-yl)pyrrolidine-2-carboxamide] | – | 30.9 | 20.5 | 313 | 52.3 | 65.1 | 37.8 | 12.1
6 | CC1(C)[C@@H]2[C@@H](C(=O)N[C@H](C=O)C[C@@H]3CCNC3=O)N(C(=O)Cc3ccc4c(c3)CCCC4)C[C@@H]21 [Compound 40, (1R,2S,5S)-6,6-Dimethyl-N—((S)-1-oxo-3-((S)-2-oxopyrrolidin-3-yl)propan-2-yl)-3-(2-(5,6,7,8-tetrahydronaphthalen-2-yl)acetyl)-3-azabicyclo[3.1.0]hexane-2-carboxamide] | – | 40.1 | 20.4 | 237 | 88.6 | 45.7 | 35.3 | 21.7
7 | COc1cc2cc(C(=O)N3C[C@H]4[C@@H]([C@H]3C(=O)N[C@H](C=O)C[C@@H]3CCNC3=O)C4(C)C)[nH]c2cc1OC [Compound 114, (1R,2S,5S)-3-(5,6-dimethoxy-1H-Indole-2-carbonyl)-6,6-dimethyl-N—((S)-1-oxo-3-((S)-2-oxopyrrolidin-3-yl)propan-2-yl)-3-azabicyclo[3.1.0]hexane-2-carboxamide] | – | 56.2 | 30.6 | 429 | 99.3 | 77.9 | 149 | 97.3
